Results taken from PMC5564600 (Oncotarget, 2017).

What was measured:
Experiment in all cases: biochemical
Type in all cases: binding
[1] = target: T1, panel of 442 kinases (Homo sapiens, UniProt Q13153); conditions: kinase PAK1; for remaining activity at 1 µM: read-out: % of control at 1 µM
T1 construct: purchased Ambit Biosciences (scanMAXX KINOMEscan)

[2] = target: T2, panel of 442 kinases (Homo sapiens, UniProt O94806); conditions: kinase PRKD3; for remaining activity at 1 µM: read-out: PRKD3 (% of control at 1 µM)
T2 construct: purchased Ambit Biosciences (scanMAXX KINOMEscan)
T2 sequence (O94806 1-890): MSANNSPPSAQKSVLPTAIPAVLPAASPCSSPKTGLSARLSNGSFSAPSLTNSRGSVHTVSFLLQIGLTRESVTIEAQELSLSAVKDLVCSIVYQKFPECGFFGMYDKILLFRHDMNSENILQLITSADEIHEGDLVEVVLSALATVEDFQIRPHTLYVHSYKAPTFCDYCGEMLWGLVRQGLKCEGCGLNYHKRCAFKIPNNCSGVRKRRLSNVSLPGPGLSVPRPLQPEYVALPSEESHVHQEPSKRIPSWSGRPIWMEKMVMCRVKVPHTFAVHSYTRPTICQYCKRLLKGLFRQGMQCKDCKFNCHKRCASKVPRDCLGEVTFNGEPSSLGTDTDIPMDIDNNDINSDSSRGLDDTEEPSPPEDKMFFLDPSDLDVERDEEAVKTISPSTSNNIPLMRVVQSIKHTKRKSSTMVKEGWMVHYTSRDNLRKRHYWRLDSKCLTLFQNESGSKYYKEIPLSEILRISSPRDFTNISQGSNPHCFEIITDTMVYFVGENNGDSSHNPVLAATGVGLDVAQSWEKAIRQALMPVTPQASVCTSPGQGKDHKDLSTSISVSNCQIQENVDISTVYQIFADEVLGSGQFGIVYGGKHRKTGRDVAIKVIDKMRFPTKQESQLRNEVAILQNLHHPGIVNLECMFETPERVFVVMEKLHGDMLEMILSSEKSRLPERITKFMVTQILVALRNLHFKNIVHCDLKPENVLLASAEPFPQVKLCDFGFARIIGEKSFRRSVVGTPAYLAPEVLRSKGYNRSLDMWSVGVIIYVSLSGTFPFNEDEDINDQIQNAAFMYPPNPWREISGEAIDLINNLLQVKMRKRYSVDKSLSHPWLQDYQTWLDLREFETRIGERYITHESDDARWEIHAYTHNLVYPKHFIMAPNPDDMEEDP

[3] = target: T3, panel of 442 kinases (Homo sapiens, UniProt P41743); conditions: kinase PRKCI; for remaining activity at 1 µM: read-out: PRKCI (% of control at 1 µM)
T3 construct: purchased Ambit Biosciences (scanMAXX KINOMEscan)
T3 sequence (P41743 1-596): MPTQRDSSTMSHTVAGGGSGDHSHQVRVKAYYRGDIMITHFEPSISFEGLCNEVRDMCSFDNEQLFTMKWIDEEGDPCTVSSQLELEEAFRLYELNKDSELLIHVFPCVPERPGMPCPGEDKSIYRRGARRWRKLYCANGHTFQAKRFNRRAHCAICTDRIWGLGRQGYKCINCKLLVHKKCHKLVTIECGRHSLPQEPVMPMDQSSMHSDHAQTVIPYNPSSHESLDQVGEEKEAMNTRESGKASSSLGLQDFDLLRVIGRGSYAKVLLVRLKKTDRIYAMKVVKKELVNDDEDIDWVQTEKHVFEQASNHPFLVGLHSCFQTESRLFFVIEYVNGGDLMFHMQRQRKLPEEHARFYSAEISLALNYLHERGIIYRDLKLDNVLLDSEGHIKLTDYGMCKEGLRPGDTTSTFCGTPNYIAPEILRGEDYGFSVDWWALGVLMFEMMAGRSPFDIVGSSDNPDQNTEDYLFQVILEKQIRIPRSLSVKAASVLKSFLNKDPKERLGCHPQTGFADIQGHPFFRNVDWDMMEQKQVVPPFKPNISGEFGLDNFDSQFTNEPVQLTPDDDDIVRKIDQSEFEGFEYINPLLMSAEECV

[4] = target: T4, panel of 442 kinases (Homo sapiens, UniProt O95835); conditions: kinase LATS1; for remaining activity at 1 µM: read-out: % of control at 1 µM
T4 construct: purchased Ambit Biosciences (scanMAXX KINOMEscan)
T4 sequence (O95835 1-1130): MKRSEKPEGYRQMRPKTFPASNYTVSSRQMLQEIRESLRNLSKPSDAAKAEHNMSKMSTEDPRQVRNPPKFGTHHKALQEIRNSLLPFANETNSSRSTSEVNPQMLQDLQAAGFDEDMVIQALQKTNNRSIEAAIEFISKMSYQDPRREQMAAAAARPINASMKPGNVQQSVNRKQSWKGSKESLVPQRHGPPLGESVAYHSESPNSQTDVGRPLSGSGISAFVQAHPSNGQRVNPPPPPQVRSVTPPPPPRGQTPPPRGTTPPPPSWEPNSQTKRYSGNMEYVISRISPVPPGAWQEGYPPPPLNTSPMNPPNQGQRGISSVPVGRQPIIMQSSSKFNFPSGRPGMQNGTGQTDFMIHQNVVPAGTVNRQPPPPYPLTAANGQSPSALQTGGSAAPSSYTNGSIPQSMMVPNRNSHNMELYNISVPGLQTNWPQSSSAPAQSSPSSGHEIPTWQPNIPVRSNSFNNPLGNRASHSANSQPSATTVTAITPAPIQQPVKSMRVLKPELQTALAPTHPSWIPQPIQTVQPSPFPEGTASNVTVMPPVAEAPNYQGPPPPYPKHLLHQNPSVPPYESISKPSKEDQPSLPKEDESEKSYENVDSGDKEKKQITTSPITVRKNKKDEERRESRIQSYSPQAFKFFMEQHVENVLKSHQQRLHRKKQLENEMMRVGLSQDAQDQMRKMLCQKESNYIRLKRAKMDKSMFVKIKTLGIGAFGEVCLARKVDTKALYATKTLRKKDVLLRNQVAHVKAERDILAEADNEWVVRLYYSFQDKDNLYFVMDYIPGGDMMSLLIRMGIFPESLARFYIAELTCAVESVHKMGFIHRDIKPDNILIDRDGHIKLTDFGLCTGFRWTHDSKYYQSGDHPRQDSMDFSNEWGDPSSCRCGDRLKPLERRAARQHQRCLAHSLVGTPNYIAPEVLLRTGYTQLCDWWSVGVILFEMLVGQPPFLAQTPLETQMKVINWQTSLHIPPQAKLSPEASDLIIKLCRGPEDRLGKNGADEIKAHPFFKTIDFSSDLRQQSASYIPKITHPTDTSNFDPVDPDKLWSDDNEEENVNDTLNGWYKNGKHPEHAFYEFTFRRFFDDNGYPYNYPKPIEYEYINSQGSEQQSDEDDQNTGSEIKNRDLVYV

[5] = target: T5, panel of 442 kinases (Homo sapiens, UniProt Q14680); conditions: kinase MELK; for remaining activity at 1 µM: read-out: % of control at 1 µM
T5 construct: purchased Ambit Biosciences (scanMAXX KINOMEscan)

[6] = 10 µM, read-out: % of control at 10 µM

T5 sequence (Q14680 whole entry): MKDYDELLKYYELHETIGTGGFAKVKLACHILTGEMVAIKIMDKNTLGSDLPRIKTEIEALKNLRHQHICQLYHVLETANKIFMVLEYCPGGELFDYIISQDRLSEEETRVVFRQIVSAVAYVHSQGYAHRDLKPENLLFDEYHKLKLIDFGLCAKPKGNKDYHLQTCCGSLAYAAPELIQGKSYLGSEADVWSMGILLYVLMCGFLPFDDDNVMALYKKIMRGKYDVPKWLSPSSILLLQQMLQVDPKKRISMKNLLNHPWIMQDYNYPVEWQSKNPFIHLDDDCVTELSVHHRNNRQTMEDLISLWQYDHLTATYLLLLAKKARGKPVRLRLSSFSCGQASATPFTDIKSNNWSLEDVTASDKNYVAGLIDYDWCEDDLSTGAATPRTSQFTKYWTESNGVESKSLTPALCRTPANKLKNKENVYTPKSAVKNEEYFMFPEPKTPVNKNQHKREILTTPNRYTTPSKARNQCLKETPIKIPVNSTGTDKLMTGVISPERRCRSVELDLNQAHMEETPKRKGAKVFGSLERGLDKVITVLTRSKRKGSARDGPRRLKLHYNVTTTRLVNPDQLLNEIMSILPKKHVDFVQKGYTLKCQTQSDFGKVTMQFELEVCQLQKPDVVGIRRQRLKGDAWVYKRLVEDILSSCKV
T1 sequence (Q13153 whole entry): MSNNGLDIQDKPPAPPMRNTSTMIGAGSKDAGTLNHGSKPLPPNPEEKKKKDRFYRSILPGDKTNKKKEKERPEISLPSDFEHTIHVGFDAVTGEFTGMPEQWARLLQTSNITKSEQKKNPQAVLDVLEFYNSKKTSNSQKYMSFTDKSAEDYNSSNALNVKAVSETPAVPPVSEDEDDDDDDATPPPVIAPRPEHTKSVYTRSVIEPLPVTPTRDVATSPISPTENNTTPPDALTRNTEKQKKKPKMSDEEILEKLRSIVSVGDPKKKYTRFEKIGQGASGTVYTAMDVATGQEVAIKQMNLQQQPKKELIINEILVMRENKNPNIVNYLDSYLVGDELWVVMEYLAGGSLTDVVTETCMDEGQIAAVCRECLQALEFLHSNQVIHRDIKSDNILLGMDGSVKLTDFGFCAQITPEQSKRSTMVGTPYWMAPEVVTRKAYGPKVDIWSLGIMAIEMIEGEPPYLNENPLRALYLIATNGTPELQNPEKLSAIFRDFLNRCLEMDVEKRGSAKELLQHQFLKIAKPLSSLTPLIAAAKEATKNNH

Compound	remaining activity at 1 µM [1]	remaining activity at 10 µM [1, 6]	remaining activity at 1 µM [2]	remaining activity at 10 µM ([2]; 10 µM, read-out: PRKD3 (% of control at 10 µM))	remaining activity at 1 µM [3]	remaining activity at 10 µM ([3]; 10 µM, read-out: PRKCI (% of control at 10 µM))	remaining activity at 1 µM [4]	remaining activity at 10 µM [4, 6]	remaining activity at 1 µM [5]	remaining activity at 10 µM [5, 6]
Nc1cc(C(F)(F)F)c(-c2cc(N3CCOCC3)nc(N3CCOCC3)n2)cn1 [Buparlisib]	100%	96%	94%	100%	90%	100%	71%	100%	90%	91%
Cn1c(=O)n(-c2ccc(C(C)(C)C#N)cc2)c2c3cc(-c4cnc5ccccc5c4)ccc3ncc21 [Dactolisib, 2-methyl-2-[4-(3-methyl-2-oxo-8-quinolin-3-yl-2,3-dihydroimidazo[4,5-c]quinolin-1-yl)-phenyl] propionitrile]	100%	–	100%	–	86%	–	100%	–	45%	–
COc1ncc(-c2ccc3nccc(-c4ccnnc4)c3c2)cc1NS(=O)(=O)c1ccc(F)cc1F [Omipalisib]	55%	–	100%	–	100%	–	100%	–	100%	–
FC(F)c1nc2ccccc2n1-c1nc(N2CCOCC2)nc(N2CCOCC2)n1 [ZSTK474, 2-(difluoromethyl)-1-[4,6-di(4-morpholinyl)-1,3,5-triazin-2-yl]-1H-benzimidazole]	100%	–	100%	–	100%	–	90%	–	100%	–
